Assay results reported in patent US20230348487A1, “2-AMINOPYRIMIDINE COMPOUND AND PHARMACEUTICAL COMPOSITION THEREOF AND APPLICATION THEREOF” (GUANGZHOU SALUSTIER BIOSCIENCES CO., LTD., priority 2021, published 2023).
Read-outs that look alike come from different tables or passages of the source.

Key:
[1] = In vivo pharmacokinetic properties in rats; set-up: species or system SD rats; conditions: rat
Method: Species: SD rats, SPF grade.
Number of rats: 3 in each group, male.
The animals in the oral administration group were fasted overnight (10-14 hours) before administration, and were fed 4 hours after administration. The animals were weighed before administration, and the dosage was calculated based on body weight. The drug was administered intravenously (iv, 5 mg/kg) or orally by gavage (po, 15 mg/kg). Blood was collected from jugular vein at 0.083 h, 0.25 h, 0.5 h, 1 h, 2 h, 4 h, 6 h, and 8 h after administration. About 0.20 mL of each sample was collected, anticoagulated with heparin sodium, placed on ice after collection, and centrifuged to separate plasma within 1 hour (centrifugation condition: 6800 g, 6 minutes, 2-8° C.). Plasma samples were stored in a −80° C. freezer until analysis. […] Pharmacokinetic parameters were calculated using Phoenix WinNonlin7.0 based on the blood drug concentration data at different time points, providing the pharmacokinetic parameters and their average values, and standard deviations.

[2] = Rat liver microsomes stability test; format: in vitro ADME; conditions: for Remaining percentage: rat liver microsomes, average value; for CLint scaled at 1 µM / half-life at 1 µM: rat, liver microsomes, pH 7.4, rat liver microsomes
Method: Firstly, preheated 0.1 M potassium phosphate buffer with 5 mM MgCl2 (i.e. K/Mg buffer) at pH 7.4±0.1. Prepared the spiked solution for the tested compound and reference compound (500 μM spiked solution: added 5 μL of 10 mM stock solution into 95 μL of acetonitrile; 1.5 μM microsomal spiked solution (0.75 mg/mL): added 1.5 μL of 500 μM spiked solution and 18.75 μL of 20 mg/mL liver microsomes into 479.75 μL of K/Mg buffer). Then NADPH was dissolved in buffer K to prepare a 6 mM, 5 mg/mL NADPH stock solution. At different time points (0-, 5-, 15-, 30-, 45 minutes), 30 μL of 1.5 μM spiked solution containing 0.75 mg/mL of microsome solution was distributed onto the designated detection plate. At 0 min, 150 μL of acetonitrile containing internal standard (IS) was added to the 0 min plate well, followed by 15 μL of NADPH stock solution (6 mM). Then, all plates were pre-incubated at 37° C. for 5 minutes, added 15 μL of NADPH stock solution (6 mM), the reaction was initiated and timed. At 5 minutes, 15 minutes, 30 minutes, and 45 minutes, added 150 μL of acetonitrile solution containing IS to the corresponding wells to stop the reaction. After quenching, the plate was shaken for 10 minutes (600 rpm/min), followed by centrifugation at 6000 rpm/min for 15 minutes. 80 μL of supernatant of each well were transferred into a 96-well sample plate containing 140 μL of ultrapure water to perform LC/MS analysis. The analysis of biological samples and all samples were completed by the analysis laboratory of Medicipia Pharmaceutical Technology (Shanghai) Co., Ltd.

[3] = system: JAK3-STAT signaling in U937 cells; assay: Western blot of JAK3-STAT signaling in U937 cells; format: cell-based, human
Method: (§1) Cell line: human acute myeloid leukemia cell line U937
Time dependent experiment: the tested molecule LS6-45 was co-incubated with U937 cells at a fixed concentration (100 nM), and the total cell protein was extracted at a specific action time. Dose dependent experiment: After co-incubating the tested molecule LS6-45 at different concentrations with U937 cell line for 10 hours, the total cell protein was extracted. Suspended cells U937 were centrifuged to remove the supernatant, washed twice with PBS, and then added an appropriate amount of lysate mixture (RIPA lysate (strong): phosphatase inhibitor mixture (50×): PMSF=100:1:1), lysed for 30 minutes on ice, and centrifugated at 12000 rpm at 4° C. for 15 min). Took the supernatant and discarded the sediment. Took an appropriate amount of supernatant to measure the protein concentration by the BCA method. Then added loading buffer at a 5:1 ratio and boiled at 100° C. for 7 minutes to be used for Western Blot experiments or stored in a −80° C. freezer for later use.
The experimental results are shown in FIG. 4, wherein the Western Blot analysis of compound LS6-45 on JAK3, STAT3, STAT5 proteins and their time/dose-dependent phosphorylation was performed, and GAPDH was used as an internal reference. In FIG. 4, A represents the U937 cell line treated with compound LS6-45 (100 nM) in a time-dependent manner, while B represents the U937 cell line treated with compound LS6-45 in a dose-dependent manner for 10 hours (diluted at five concentrations of 800 nM 1:4).

[4] = system: human chronic myeloid leukemia cell line K562; assay: CCK-8 in vitro proliferation inhibition; format: cell-based; conditions: Homo sapiens, K562, 72 hours, read-out: Inhibitory activity (IC50) on cell proliferation, K562
[5] = system: human acute myeloid leukemia cell line U937; assay: CCK-8 in vitro proliferation inhibition; format: cell-based; conditions: Homo sapiens, U-937, 72 hours, read-out: Inhibitory activity (IC50) on cell proliferation, U937
[6] = system: phosphorylation of JAK3 and STAT5 in U937 cells; assay: Wash out experiment in U937 cells; format: cell-based, human; conditions: 200 nM 10 hours then removed
Method: as §1
After 200 nM test compound LS6-45 was co-incubated with U937 cells for 10 hours, the supernatant was discarded by centrifugation. The cells were collected and washed with PBS to remove residual compounds. After adding fresh culture medium, the cells continued to be cultured in a 37° C. incubator. Cells were collected at 0, 0.5, 1, 2, 4, 8, 12, and 16 hours, and protein was extracted for Western blot analysis.

## C=CC(=O)Nc1cc(Nc2ncc(Cl)c(O[C@@H]3CO[C@H]4[C@@H]3OC[C@H]4OC)n2)ccc1N(C)CCN(C)C [LS 6-45]
[1]; male, SD, plasma, iv 5 mg/kg
  clearance: 155 ± 2.83 mL/min/kg
[1]; iv 5 mg/kg
  AUC(0-∞): 536.99 ± 9.89 ng·h/mL
  Cmax: 911.33 ± 139.73 ng/mL
[1]; po 15 mg/kg
  AUC(0-∞): 333.50 ± 45.52 ng·h/mL
  Cmax: 238.28 ± 13.68 ng/mL
  F (oral availability): 20.66 ± 2.83%
[1]; po 15 mg/kg, listed as LS6-45
  F (oral availability): 20.66%
[2]; 0 min
  Remaining percentage: 100.00%
[2]; 5 min
  Remaining percentage: 95.76%
[2]; 15 min
  Remaining percentage: 90.38%
[2]; 30 min
  Remaining percentage: 87.93%
[2]; 45 min
  Remaining percentage: 79.61%
[2]; calculated value below the 20.70 limit, read-out: Clint (value in parentheses)
  CLint scaled at 1 µM: 16.6 mL/min/kg
[2]; calculated value beyond the 120 min limit, read-out: T1/2 (value in parentheses)
  half-life at 1 µM: 2.5 h
[2]; read-out: Clint
  CLint scaled at 1 µM: < 20.7 mL/min/kg
[2]; read-out: T1/2
  half-life at 1 µM: > 2 h
[3]; 50 nM, 10 hours
  phosphorylation level of JAK3 (Western blot): significantly weakened
[3]; 100 nM, 4 hours
  phosphorylation level of JAK3 protein (Western blot): effectively reduced the phosphorylation level of JAK3 protein
[3]; 100 nM, around 8 hours
  JAK3 phosphorylation (Western blot): completely inhibited JAK3 phosphorylation
[3]; 100 nM, time course
  phosphorylation levels of downstream proteins STAT3 and STAT5: weakened in a time-dependent manner
[3]; 200 nM, 10 hours
  phosphorylation level of JAK3 (Western blot): almost completely disappeared
[3]; different concentrations, 10 hours
  phosphorylation levels of downstream proteins STAT3 and STAT5: dose-dependent weakening
[4]
  IC50: 335 nM
[5]
  IC50: 20.2 nM
[6]; between 8-12 hours
  phosphorylation levels of JAK3 and STAT5 after wash out: slowly recovered
[6]; within 8 hours
  phosphorylation levels of JAK3 and STAT5 after wash out: continuously inhibited
